Measured values: patent US7534808B2, “Indolylmaleimide derivatives” (priority 2002, dated 2009)

Tests used:
Human recombinant PKCθ = Human recombinant PKCθ (Homo sapiens, UniProt Q04759); experiment: Protein Kinase C θ Assay; type: biochemical
Protocol: (§1) The compounds of formula I are tested for their activity on different PKC isoforms according to a published method (D. Geiges et al. Biochem. Pharmacol. 1997; 53:865-875) The assay is performed in a 96-well polypropylene microtiterplate (Costar 3794) that has been previously siliconized with Sigmacote (Sigma SL-2). The reaction mixture (50 μl) contains 10 μl of the relevant PKC isozyme together with 25 μl of the test compound and 15 μl of a mix solution that contains 200 μg/ml protamine sulfate, 10 mM Mg(NO3)2, 10 μM ATP (Boehringer 519987) and 3750 Bq of ^33P-ATP (Hartmann Analytic SFC301, 110TBq/mmol) in 20 mM Tris-buffer pH 7.4+0.1% BSA. Incubation is performed for 15 min at 32° C. in a microtiterplate shaking incubator (Biolabo Scientific Instruments). Reaction is stopped by adding 10 μl of 0.5 M Na2EDTA, pH 7.4. 50 μl of mixture are pipetted onto a pre-wetted phosphocellulose paper (Whatmann 3698-915) under gentle pressure. Non-incorporated ATP is washed away with 100 μl bi-dist H2O. The paper is washed twice in 0.5% H3PO4 for 15 min followed by 5 min in EtOH. Thereafter the paper is dryed and placed in an omnifilter (Packard 6005219), and overlayed with 10 μl/well of Microscint-O (Packard 6013611) before counting in a Topcount radioactivity counter (Packard). […] IC50 values are calculated from the graph by sigmoidal curve fitting. […]

Human recombinant PKCε = target: T1, Human recombinant PKCε (Homo sapiens, UniProt Q02156); experiment: Protein Kinase Cε Assay; type: biochemical
T1 construct: purchased Oxford Biomedical Research
T1 sequence (Q02156 1-737): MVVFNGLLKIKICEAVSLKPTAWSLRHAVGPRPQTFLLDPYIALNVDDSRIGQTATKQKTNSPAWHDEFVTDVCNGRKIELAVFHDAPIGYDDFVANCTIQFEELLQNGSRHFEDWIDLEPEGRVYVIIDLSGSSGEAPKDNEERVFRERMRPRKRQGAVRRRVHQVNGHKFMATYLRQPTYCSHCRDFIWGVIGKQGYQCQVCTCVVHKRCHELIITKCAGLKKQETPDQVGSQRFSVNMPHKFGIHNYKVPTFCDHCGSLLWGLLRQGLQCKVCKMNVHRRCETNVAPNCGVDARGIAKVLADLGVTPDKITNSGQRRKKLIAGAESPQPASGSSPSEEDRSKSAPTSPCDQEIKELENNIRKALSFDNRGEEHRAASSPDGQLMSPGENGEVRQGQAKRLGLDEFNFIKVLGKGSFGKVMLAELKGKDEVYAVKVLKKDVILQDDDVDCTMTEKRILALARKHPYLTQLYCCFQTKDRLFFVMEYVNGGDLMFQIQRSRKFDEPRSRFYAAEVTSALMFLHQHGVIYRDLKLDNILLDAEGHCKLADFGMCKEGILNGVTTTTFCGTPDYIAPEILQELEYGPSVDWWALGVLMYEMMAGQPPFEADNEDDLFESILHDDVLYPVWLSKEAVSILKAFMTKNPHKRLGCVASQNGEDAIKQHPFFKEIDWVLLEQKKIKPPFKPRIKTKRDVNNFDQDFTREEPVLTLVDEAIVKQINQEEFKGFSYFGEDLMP
Protocol: as §1

Chain of Human recombinant PKCθ (Q04759 whole entry, canonical isoform): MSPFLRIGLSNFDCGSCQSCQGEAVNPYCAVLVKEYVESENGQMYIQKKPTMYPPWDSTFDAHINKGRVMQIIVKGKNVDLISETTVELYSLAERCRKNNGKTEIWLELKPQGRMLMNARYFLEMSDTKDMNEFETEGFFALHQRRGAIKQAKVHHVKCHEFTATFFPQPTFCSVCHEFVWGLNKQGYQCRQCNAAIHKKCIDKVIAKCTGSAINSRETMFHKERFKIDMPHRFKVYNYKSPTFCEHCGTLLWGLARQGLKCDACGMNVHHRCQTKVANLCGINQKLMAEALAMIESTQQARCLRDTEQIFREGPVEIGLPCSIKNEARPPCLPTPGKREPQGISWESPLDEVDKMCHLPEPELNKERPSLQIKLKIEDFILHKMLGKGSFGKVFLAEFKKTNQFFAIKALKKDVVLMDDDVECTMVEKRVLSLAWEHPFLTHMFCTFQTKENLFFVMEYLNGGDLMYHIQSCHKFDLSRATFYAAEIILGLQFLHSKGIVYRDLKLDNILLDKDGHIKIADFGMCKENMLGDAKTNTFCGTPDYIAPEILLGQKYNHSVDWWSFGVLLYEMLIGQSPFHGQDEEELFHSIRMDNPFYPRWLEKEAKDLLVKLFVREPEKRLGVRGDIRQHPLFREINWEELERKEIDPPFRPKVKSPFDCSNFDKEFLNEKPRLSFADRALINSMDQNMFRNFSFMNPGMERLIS

**Q.** `Cc1cccc2c(C3=C(c4nc(N5CCNC6(CC6)C5)cc5ccccc45)C(=O)NC3=O)c[nH]c12` [Example 69, 3-[3-(4,7-Diaza-spiro[2.5]oct-7-yl)-isoquinolin-1-yl]-4-(7-methyl-1H-indol-3-yl)-pyrrole-2,5-dione] was tested. Which IC50 (Human recombinant PKCθ) did it give?
**A.** 12.1 nM

**Q.** And the IC50 (Human recombinant PKCε)?
**A.** 18 nM
